In patent US6319702A, “Nucleic acids encoding mutant human carboxypeptidase A enzymes” (Glaxo Wellcome, Inc., priority 1993, dated 2001):
Where two headings read alike, the source gives them in different places.

Key:
mutant enzyme = experiment: Substrate behaviour with mutant enzyme; type: biochemical, human
Excerpt: This type of compound is not useful for ADEPT.

[1] = target: T1, wild type human carboxypeptidase A1 (Homo sapiens, UniProt P15085); experiment: Enzyme kinetics of prodrugs with wild type human carboxypeptidase A1 (coupled assay); type: biochemical
T1 sequence (P15085 111-419): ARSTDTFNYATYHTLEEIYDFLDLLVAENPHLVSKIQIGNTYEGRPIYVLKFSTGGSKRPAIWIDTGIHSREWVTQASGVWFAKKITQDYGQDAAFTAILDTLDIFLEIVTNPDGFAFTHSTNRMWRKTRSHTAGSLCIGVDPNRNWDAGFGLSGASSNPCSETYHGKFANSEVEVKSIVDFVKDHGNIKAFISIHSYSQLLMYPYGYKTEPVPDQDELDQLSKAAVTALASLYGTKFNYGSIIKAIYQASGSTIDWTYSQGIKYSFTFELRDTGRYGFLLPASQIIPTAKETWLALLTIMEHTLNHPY
Summary of the method: (§1)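 Coupled spectrophotometric assay: released methotrexate converted by excess carboxypeptidase G (17 milliunits) to its pteroate, followed at 315 nm (Δε 9.57 mM^-1 cm^-1). 25° C in 25 mM tris-HCl, 100 mM NaCl, pH 7.4; reaction started with wild-type or mutant carboxypeptidase A. Kinetic constants from initial velocities by Michaelis-Menten analysis.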

[2] = Stability and biodistribution of prodrugs in vivo (HPLC of plasma and tissues); set-up: species or system mice (CD-1 nude; BALB/C where indicated); conditions: for stability in vivo (in words): mice
268gly = experiment: Enzyme kinetics of prodrugs with 268gly mutant of human CPA1 (coupled assay); type: biochemical; conditions: for kcat/Km: 268Gly
Summary of the method: as §1

in vivo = conditions: mouse, iv
268ala = experiment: Enzyme kinetics of prodrugs with 268ala mutant of human CPA1 (coupled assay); type: biochemical; conditions: 25° C., pH 7.4
Summary of the method: as §1

[3] = CECUM, 30 min, 50 mg/kg i.p. or i.v., CD-1 nude mice
[4] = CECUM, 120 min, 50 mg/kg i.p. or i.v., CD-1 nude mice
[5] = FECES, 30 min, 50 mg/kg i.p. or i.v., CD-1 nude mice
[6] = FECES, 120 min, 50 mg/kg i.p. or i.v., CD-1 nude mice
[7] = KIDNEY, 30 min, 50 mg/kg i.p. or i.v., CD-1 nude mice
[8] = KIDNEY, 120 min, 50 mg/kg i.p. or i.v., CD-1 nude mice
[9] = LARGE INTESTINE, 30 min, 50 mg/kg i.p. or i.v., CD-1 nude mice
[10] = LARGE INTESTINE, 120 min, 50 mg/kg i.p. or i.v., CD-1 nude mice
[11] = LIVER, 30 min, 50 mg/kg i.p. or i.v., CD-1 nude mice
[12] = LIVER, 120 min, 50 mg/kg i.p. or i.v., CD-1 nude mice
[13] = SMALL INTESTINE, 30 min, 50 mg/kg i.p. or i.v., CD-1 nude mice
[14] = SMALL INTESTINE, 120 min, 50 mg/kg i.p. or i.v., CD-1 nude mice
[15] = SPLEEN, 30 min, 50 mg/kg i.p. or i.v., CD-1 nude mice
[16] = mouse, cecum, 50 mg/kg, CECUM, 30 min, 50 mg/kg i.p. or i.v., CD-1 nude mice, read-out: stability: percentage of material observed as intact prodrug, cecum
[17] = mouse, cecum, 50 mg/kg, CECUM, 120 min, 50 mg/kg i.p. or i.v., CD-1 nude mice, read-out: stability: percentage of material observed as intact prodrug, cecum
[18] = mouse, feces, 50 mg/kg, FECES, 30 min, 50 mg/kg i.p. or i.v., CD-1 nude mice, read-out: stability: percentage of material observed as intact prodrug, feces (converted)
[19] = mouse, feces, 50 mg/kg, FECES, 120 min, 50 mg/kg i.p. or i.v., CD-1 nude mice, read-out: stability: percentage of material observed as intact prodrug, feces
[20] = mouse, kidney, 50 mg/kg, KIDNEY, 30 min, 50 mg/kg i.p. or i.v., CD-1 nude mice, read-out: stability: percentage of material observed as intact prodrug, kidney
[21] = mouse, kidney, 50 mg/kg, KIDNEY, 120 min, 50 mg/kg i.p. or i.v., CD-1 nude mice, read-out: stability: percentage of material observed as intact prodrug, kidney
[22] = mouse, large intestine, 50 mg/kg, LARGE INTESTINE, 30 min, 50 mg/kg i.p. or i.v., CD-1 nude mice, read-out: stability: percentage of material observed as intact prodrug, large intestine
[23] = mouse, large intestine, 50 mg/kg, LARGE INTESTINE, 120 min, 50 mg/kg i.p. or i.v., CD-1 nude mice, read-out: stability: percentage of material observed as intact prodrug, large intestine
[24] = mouse, liver, 50 mg/kg, LIVER, 30 min, 50 mg/kg i.p. or i.v., CD-1 nude mice, read-out: stability: percentage of material observed as intact prodrug, liver (converted)
[25] = mouse, liver, 50 mg/kg, LIVER, 120 min, 50 mg/kg i.p. or i.v., CD-1 nude mice, read-out: stability: percentage of material observed as intact prodrug, liver
[26] = mouse, plasma, 50 mg/kg, PLASMA, 30 min, 50 mg/kg i.p. or i.v., CD-1 nude mice, read-out: concentration of prodrug in plasma
[27] = mouse, plasma, 50 mg/kg, PLASMA, 30 min, 50 mg/kg i.p. or i.v., CD-1 nude mice, read-out: stability: percentage of material observed as intact prodrug, plasma
[28] = mouse, small intestine, 50 mg/kg, SMALL INTESTINE, 30 min, 50 mg/kg i.p. or i.v., CD-1 nude mice, read-out: stability: percentage of material observed as intact prodrug, small intestine
[29] = mouse, small intestine, 50 mg/kg, SMALL INTESTINE, 120 min, 50 mg/kg i.p. or i.v., CD-1 nude mice, read-out: stability: percentage of material observed as intact prodrug, small intestine
[30] = mouse, spleen, 50 mg/kg, SPLEEN, 30 min, 50 mg/kg i.p. or i.v., CD-1 nude mice, read-out: stability: percentage of material observed as intact prodrug, spleen

CN(Cc1cnc2nc(N)nc(N)c2n1)c1ccc(C(=O)N[C@@H](CCC(=O)O)C(=O)N[C@@H](Cc2cccc(C3CCCC3)c2)C(=O)O)cc1 [Prodrug 9]
substrate for a mutant enzyme (in words) (mutant enzyme): good substrates for a mutant enzyme
human CPA catalyzed reaction (in words) [1]: not measureable
kcat/Km for human CPA1 compared with that of the L-phenylalanine prodrug (in words) [1]: much lower
substrate for wild type CPA (in words) [1]: not for the wild type enzyme
concentration of prodrug in cecum [2, 3]: 4.l
concentration of prodrug in cecum [2, 4]: 108.3 nmol/g
concentration of prodrug in feces ([2]; FECES, 30 min, 50 mg/kg i.p. or i.v., BALB/C mice): 1604.27 nmol/g
concentration of prodrug in feces [2, 5]: 1104.1 nmol/g
concentration of prodrug in feces [2, 6]: 1505.7 nmol/g
concentration of prodrug in kidney [2, 7]: 6.8 nmol/g
concentration of prodrug in kidney [2, 8]: 1.3 nmol/g
concentration of prodrug in large intestine [2, 9]: 2.6 nmol/g
concentration of prodrug in large intestine [2, 10]: 6.2 nmol/g
concentration of prodrug in liver [2, 11]: 54.3 nmol/g
concentration of prodrug in liver [2, 12]: 126.2 nmol/g
concentration of prodrug in small intestine ([2]; SMALL INTESTINE, 30 min, 50 mg/kg i.p. or i.v., BALB/C mice): 420.3 nmol/g
concentration of prodrug in small intestine [2, 13]: 377.9 nmol/g
concentration of prodrug in small intestine [2, 14]: 211.0 nmol/g
concentration of prodrug in spleen [2, 15]: 8.4 nmol/g
stability in vivo (in words) ([2]; 50 mg/kg): stable in vivo
remaining at 0.5 h [2, 16]: 100%
remaining at 2 h [2, 17]: 99%
remaining at 0.5 h ([2]; mouse, feces, 50 mg/kg, FECES, 30 min, 50 mg/kg i.p. or i.v., BALB/C mice, read-out: stability: percentage of material observed as intact prodrug, feces (converted)): 98%
remaining at 0.5 h [2, 18]: 97%
remaining at 2 h [2, 19]: 94%
remaining at 0.5 h [2, 20]: 100%
remaining at 2 h [2, 21]: 100%
remaining at 0.5 h [2, 22]: 100%
remaining at 2 h [2, 23]: 100%
remaining at 0.5 h [2, 24]: 83%
remaining at 2 h [2, 25]: 94%
concentration at 0.5 h ([2]; mouse, plasma, 50 mg/kg, PLASMA, 30 min, 50 mg/kg i.p. or i.v., BALB/C mice, read-out: concentration of prodrug in plasma): 4900 nM
remaining at 0.5 h ([2]; mouse, plasma, 50 mg/kg, PLASMA, 30 min, 50 mg/kg i.p. or i.v., BALB/C mice, read-out: stability: percentage of material observed as intact prodrug, plasma): 100%
concentration at 0.5 h [2, 26]: 1100 nM
remaining at 0.5 h [2, 27]: 100%
remaining at 0.5 h ([2]; mouse, small intestine, 50 mg/kg, SMALL INTESTINE, 30 min, 50 mg/kg i.p. or i.v., BALB/C mice, read-out: stability: percentage of material observed as intact prodrug, small intestine): 98%
remaining at 0.5 h [2, 28]: 97%
remaining at 2 h [2, 29]: 93%
remaining at 0.5 h [2, 30]: 100%
kcat/Km (268gly): 92000 M⁻¹ s⁻¹

CN(Cc1cnc2nc(N)nc(N)c2n1)c1ccc(C(=O)N[C@@H](CCC(=O)O)C(=O)N[C@@H](Cc2ccccc2C2CCCC2)C(=O)O)cc1 [Prodrug 8]
substrate for a mutant enzyme (in words) (mutant enzyme): good substrates for a mutant enzyme
kcat/Km for human CPA1 compared with that of the L-phenylalanine prodrug (in words) [1]: much lower
substrate for wild type CPA (in words) [1]: not for the wild type enzyme
kcat ([1]; Human CPA1, 25° C., pH 7.4): 0.012 s⁻¹
MTD (in vivo): ≥ 20 mg/kg
concentration of prodrug in cecum [2, 3]: 6.8 nmol/g
concentration of prodrug in cecum [2, 4]: 235.1 nmol/g
concentration of prodrug in feces [2, 5]: 150.2 nmol/g
concentration of prodrug in feces [2, 6]: 646.2 nmol/g
concentration of prodrug in kidney [2, 7]: 5.6 nmol/g
concentration of prodrug in kidney [2, 8]: 3.2 nmol/g
concentration of prodrug in large intestine [2, 9]: 5.2 nmol/g
concentration of prodrug in large intestine [2, 10]: 27.3 nmol/g
concentration of prodrug in liver [2, 11]: 113.5 nmol/g
concentration of prodrug in liver [2, 12]: 43.9 nmol/g
concentration of prodrug in small intestine [2, 13]: 364.5 nmol/g
concentration of prodrug in small intestine [2, 14]: 31.7 nmol/g
concentration of prodrug in spleen [2, 15]: 1.4 nmol/g
concentration of prodrug in spleen ([2]; SPLEEN, 120 min, 50 mg/kg i.p. or i.v., CD-1 nude mice): 1.1 nmol/g
stability in vivo (in words) ([2]; 50 mg/kg): stable in vivo
remaining at 0.5 h [2, 16]: 75%
remaining at 2 h [2, 17]: 56%
remaining at 0.5 h [2, 18]: 71%
remaining at 2 h [2, 19]: 55%
remaining at 0.5 h [2, 20]: 84%
remaining at 2 h [2, 21]: 81%
remaining at 0.5 h [2, 22]: 93%
remaining at 2 h [2, 23]: 57%
remaining at 0.5 h [2, 24]: 90%
remaining at 2 h [2, 25]: 76%
concentration at 0.5 h [2, 26]: 28500 nM
remaining at 0.5 h [2, 27]: 95%
concentration at 2 h ([2]; mouse, plasma, 50 mg/kg, PLASMA, 120 min, 50 mg/kg i.p. or i.v., CD-1 nude mice, read-out: concentration of prodrug in plasma): 1100 nM
remaining at 2 h ([2]; mouse, plasma, 50 mg/kg, PLASMA, 120 min, 50 mg/kg i.p. or i.v., CD-1 nude mice, read-out: stability: percentage of material observed as intact prodrug, plasma): 90%
remaining at 0.5 h [2, 28]: 77%
remaining at 2 h [2, 29]: 35%
remaining at 0.5 h [2, 30]: 98%
remaining at 2 h ([2]; mouse, spleen, 50 mg/kg, SPLEEN, 120 min, 50 mg/kg i.p. or i.v., CD-1 nude mice, read-out: stability: percentage of material observed as intact prodrug, spleen): 100%
Km (268ala): 56 µM
kcat (268ala): 0.088 s⁻¹
kcat/Km (268gly): 157000 M⁻¹ s⁻¹
Km (268gly; 268gly, 25° C., pH 7.4): 15 µM
kcat (268gly; 268gly, 25° C., pH 7.4): 2.35 s⁻¹
